Tests used:
[1] = target: T1, Adenosine receptor A1 (Homo sapiens, UniProt P30542)
T1 sequence (P30542 whole entry): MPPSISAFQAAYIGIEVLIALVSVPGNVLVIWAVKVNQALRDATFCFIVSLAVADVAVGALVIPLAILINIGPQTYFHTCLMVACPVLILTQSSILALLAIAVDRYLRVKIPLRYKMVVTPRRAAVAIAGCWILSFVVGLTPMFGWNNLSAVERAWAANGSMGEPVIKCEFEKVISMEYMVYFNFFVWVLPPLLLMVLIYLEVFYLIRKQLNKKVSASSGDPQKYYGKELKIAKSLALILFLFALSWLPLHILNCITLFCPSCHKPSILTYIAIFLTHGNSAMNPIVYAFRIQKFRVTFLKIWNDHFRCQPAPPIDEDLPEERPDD

[2] = target: T2, Alpha-2B adrenergic receptor (Homo sapiens, UniProt P18089)
T2 sequence (P18089 whole entry): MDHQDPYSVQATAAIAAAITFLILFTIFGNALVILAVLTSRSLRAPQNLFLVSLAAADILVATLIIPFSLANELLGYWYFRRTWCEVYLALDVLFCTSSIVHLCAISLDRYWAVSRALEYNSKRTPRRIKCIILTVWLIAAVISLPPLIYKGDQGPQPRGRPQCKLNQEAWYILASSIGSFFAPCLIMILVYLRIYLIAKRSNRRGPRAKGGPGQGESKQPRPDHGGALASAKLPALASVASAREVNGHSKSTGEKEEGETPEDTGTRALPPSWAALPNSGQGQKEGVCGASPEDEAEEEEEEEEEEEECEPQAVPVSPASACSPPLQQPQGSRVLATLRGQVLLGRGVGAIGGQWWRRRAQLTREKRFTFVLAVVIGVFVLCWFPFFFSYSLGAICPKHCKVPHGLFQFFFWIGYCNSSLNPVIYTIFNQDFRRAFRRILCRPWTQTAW

[3] = target: T3, Androgen receptor (Rattus norvegicus, UniProt P15207); assay type: functional
T3 sequence (P15207 whole entry): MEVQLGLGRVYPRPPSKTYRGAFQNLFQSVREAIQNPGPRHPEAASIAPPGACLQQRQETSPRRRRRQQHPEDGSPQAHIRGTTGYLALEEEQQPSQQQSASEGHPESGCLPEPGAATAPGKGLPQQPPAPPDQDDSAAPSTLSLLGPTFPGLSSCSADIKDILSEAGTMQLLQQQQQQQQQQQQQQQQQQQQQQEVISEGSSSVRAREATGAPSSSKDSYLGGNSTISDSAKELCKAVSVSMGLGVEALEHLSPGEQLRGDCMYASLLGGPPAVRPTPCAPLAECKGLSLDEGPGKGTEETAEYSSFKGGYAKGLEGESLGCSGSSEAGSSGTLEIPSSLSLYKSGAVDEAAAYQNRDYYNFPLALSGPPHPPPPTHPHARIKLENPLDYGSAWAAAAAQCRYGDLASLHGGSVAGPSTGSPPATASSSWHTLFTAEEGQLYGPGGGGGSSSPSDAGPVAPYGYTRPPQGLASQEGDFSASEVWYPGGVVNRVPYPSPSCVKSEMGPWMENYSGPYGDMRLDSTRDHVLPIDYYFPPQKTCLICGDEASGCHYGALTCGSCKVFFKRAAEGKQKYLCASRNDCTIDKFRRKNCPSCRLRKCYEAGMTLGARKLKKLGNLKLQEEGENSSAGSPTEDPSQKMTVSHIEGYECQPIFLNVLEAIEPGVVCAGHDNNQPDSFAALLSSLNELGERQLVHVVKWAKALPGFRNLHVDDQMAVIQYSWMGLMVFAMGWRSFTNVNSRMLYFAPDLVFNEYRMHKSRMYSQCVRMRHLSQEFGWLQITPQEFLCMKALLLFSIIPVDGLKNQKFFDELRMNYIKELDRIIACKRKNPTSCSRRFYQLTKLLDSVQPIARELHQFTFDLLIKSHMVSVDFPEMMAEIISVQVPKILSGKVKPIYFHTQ

[4] = target: Vasopressin V1a receptor (Homo sapiens, UniProt P37288)
[5] = target: T4, Gastrin/cholecystokinin type B receptor (Homo sapiens, UniProt P32239)
T4 sequence (P32239 whole entry): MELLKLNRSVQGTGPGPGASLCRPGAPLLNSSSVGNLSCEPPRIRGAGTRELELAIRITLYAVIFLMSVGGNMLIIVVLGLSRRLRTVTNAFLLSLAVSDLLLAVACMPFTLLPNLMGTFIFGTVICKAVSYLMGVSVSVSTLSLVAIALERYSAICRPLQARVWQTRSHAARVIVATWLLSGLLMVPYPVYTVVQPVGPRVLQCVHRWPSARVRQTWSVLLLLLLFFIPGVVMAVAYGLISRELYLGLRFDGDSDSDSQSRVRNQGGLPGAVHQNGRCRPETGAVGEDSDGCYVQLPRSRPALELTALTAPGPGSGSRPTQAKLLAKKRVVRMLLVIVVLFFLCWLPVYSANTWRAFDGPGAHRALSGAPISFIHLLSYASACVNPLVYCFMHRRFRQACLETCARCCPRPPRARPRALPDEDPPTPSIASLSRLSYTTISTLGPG

[6] = target: Muscarinic acetylcholine receptor M3 (Homo sapiens, UniProt P20309)
[7] = target: T5, Cannabinoid receptor 1 (Homo sapiens, UniProt P21554)
T5 sequence (P21554 whole entry): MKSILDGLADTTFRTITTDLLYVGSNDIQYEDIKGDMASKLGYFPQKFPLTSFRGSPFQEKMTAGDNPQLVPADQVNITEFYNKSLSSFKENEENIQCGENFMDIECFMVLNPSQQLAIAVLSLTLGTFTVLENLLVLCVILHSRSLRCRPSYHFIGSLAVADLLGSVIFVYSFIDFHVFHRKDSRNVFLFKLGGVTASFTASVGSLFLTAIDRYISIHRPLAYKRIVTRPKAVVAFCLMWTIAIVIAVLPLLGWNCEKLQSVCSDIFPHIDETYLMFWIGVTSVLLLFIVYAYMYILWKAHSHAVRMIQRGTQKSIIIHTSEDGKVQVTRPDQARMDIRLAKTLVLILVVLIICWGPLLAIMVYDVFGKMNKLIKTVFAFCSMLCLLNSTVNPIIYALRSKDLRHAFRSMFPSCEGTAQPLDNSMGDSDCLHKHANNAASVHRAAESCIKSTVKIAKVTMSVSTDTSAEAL

[8] = target: Histamine H1 receptor (Homo sapiens, UniProt P35367)
Histamine H1 receptor, sequence (P35367 whole entry): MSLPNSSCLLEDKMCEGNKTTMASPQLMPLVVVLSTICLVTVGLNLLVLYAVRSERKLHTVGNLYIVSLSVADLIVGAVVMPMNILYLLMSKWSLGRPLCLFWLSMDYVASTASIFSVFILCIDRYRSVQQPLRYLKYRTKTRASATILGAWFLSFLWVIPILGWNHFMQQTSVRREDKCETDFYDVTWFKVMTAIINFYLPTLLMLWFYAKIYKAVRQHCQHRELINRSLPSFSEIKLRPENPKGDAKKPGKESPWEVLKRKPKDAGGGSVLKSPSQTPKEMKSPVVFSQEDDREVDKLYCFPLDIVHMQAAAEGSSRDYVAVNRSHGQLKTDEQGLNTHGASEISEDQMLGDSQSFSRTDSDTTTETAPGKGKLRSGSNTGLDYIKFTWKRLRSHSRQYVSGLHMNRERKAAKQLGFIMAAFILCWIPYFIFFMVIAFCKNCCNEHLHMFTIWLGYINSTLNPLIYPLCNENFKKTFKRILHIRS

[9] = target: T6, 5-hydroxytryptamine receptor 2A (Homo sapiens, UniProt P28223); assay type: functional, cell-based
T6 sequence (P28223 whole entry): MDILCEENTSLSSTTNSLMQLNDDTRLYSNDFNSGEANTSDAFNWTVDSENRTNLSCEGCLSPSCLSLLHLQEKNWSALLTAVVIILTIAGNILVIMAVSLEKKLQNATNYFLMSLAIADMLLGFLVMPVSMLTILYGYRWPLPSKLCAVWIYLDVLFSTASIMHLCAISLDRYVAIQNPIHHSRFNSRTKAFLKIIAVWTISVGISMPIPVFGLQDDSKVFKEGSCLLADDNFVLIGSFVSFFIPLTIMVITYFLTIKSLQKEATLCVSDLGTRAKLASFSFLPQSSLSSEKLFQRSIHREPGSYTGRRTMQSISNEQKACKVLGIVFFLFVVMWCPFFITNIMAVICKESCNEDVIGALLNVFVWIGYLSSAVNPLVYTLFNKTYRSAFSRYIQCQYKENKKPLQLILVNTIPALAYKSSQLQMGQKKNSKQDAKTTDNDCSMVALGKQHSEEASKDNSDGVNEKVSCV

[10] = target: T6, 5-hydroxytryptamine receptor 2A; assay type: functional, cell-based; remark: listed apart in the source
[11] = target: T7, Mu-type opioid receptor (Homo sapiens, UniProt P35372); assay: biochemical; assay type: functional
T7 sequence (P35372 whole entry): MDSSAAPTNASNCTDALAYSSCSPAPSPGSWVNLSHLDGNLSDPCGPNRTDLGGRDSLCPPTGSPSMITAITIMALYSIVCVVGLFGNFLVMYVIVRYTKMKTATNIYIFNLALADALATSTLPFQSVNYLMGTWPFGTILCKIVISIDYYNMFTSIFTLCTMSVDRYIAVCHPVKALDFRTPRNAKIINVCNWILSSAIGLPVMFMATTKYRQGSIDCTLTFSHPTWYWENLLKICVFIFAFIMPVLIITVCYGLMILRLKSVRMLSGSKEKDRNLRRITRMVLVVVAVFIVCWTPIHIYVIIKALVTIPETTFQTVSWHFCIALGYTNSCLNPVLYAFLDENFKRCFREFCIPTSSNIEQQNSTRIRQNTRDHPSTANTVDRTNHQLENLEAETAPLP

[12] = target: Sodium-dependent serotonin transporter (Homo sapiens, UniProt P31645)
Sodium-dependent serotonin transporter, sequence (P31645 whole entry): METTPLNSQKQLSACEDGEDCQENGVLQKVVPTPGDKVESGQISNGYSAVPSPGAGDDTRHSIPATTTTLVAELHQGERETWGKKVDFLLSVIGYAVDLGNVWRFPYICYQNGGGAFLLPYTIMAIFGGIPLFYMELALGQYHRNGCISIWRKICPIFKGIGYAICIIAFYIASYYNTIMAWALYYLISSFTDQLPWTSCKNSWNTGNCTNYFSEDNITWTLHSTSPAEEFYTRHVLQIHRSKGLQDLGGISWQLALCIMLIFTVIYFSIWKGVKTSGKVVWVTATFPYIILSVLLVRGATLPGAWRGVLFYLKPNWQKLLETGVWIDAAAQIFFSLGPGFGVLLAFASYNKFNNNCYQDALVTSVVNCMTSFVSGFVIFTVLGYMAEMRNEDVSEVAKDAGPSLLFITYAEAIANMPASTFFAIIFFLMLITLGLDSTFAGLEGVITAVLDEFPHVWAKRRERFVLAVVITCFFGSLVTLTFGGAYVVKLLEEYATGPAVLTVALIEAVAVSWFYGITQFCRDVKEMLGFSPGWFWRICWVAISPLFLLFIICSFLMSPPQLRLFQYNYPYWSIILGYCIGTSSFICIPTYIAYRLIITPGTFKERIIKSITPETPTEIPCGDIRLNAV

[13] = target: Beta-2 adrenergic receptor (Homo sapiens, UniProt P07550); assay type: functional, cell-based
Beta-2 adrenergic receptor, sequence (P07550 whole entry): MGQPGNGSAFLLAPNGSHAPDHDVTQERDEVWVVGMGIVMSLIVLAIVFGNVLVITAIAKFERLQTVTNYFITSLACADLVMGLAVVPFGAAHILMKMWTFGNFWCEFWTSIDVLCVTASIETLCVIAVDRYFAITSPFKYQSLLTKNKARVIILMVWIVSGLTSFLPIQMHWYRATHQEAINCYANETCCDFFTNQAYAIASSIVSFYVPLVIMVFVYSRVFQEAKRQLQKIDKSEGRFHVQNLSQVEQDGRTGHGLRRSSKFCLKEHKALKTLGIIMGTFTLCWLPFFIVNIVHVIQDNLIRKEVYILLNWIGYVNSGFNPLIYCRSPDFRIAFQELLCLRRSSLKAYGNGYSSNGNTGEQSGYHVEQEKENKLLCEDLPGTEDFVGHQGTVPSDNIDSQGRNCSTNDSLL

[14] = target: T5, Cannabinoid receptor 1; assay type: functional, cell-based
[15] = target: Gamma-aminobutyric acid receptor subunit alpha-1/alpha-2/beta-2/gamma-2 (Homo sapiens, UniProt P14867+P18507+P47869+P47870); assay type: functional, cell-based
Gamma-aminobutyric acid receptor subunit alpha-1/alpha-2/beta-2/gamma-2, sequence (P14867 whole entry): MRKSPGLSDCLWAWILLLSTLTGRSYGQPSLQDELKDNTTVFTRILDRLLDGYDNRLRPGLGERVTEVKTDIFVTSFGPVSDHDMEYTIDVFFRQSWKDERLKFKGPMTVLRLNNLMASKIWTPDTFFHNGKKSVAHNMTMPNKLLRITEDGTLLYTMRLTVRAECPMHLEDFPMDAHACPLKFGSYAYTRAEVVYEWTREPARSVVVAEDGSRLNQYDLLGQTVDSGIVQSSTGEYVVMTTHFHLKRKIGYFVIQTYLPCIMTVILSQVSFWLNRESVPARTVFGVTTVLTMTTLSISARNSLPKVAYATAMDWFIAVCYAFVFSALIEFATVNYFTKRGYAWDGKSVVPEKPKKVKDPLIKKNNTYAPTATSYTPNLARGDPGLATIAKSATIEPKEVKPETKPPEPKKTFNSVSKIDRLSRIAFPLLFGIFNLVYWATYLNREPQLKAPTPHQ
Gamma-aminobutyric acid receptor subunit alpha-1/alpha-2/beta-2/gamma-2, sequence (P47870 whole entry): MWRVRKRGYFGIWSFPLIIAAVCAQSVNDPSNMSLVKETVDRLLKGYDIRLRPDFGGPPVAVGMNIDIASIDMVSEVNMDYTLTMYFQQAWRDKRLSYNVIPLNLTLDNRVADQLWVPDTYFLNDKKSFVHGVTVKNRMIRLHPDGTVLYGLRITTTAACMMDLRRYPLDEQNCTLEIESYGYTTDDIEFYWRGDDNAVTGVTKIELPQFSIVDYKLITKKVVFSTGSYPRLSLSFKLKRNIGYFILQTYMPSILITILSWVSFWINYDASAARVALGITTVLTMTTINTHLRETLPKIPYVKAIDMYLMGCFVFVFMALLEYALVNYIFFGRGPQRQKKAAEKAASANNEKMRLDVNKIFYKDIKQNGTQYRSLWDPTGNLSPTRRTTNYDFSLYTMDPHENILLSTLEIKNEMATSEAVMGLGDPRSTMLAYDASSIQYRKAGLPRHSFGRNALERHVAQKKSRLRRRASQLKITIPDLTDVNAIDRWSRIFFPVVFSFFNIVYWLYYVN
Gamma-aminobutyric acid receptor subunit alpha-1/alpha-2/beta-2/gamma-2, sequence (P18507 whole entry): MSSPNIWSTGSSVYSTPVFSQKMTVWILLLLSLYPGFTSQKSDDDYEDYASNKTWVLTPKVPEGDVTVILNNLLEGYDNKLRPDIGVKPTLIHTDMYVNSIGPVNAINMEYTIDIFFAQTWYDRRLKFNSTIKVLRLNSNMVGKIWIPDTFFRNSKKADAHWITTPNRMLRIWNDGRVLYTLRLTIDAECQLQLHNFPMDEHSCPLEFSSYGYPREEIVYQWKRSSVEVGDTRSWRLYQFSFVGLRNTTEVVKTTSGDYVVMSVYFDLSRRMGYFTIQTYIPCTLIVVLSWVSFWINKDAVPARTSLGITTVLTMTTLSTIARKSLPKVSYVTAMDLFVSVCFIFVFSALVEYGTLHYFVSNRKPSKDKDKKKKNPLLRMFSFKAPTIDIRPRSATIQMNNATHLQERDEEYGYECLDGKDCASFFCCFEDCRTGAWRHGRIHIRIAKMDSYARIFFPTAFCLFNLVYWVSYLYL
Gamma-aminobutyric acid receptor subunit alpha-1/alpha-2/beta-2/gamma-2, sequence (P47869 whole entry): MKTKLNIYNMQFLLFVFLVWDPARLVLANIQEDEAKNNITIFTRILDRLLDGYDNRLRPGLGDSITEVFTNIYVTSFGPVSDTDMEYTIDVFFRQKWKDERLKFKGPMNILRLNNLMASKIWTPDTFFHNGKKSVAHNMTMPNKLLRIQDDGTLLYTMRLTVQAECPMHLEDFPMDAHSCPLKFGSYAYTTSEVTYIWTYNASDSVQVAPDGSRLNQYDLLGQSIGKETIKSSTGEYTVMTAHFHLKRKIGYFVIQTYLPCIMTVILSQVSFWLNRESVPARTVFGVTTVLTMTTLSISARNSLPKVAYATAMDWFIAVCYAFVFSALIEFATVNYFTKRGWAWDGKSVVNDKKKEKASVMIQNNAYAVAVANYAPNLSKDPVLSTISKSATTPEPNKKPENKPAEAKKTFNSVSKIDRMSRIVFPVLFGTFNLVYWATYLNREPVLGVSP

[16] = target: T7, Mu-type opioid receptor

Measured: AC50
Note: assay procedure not described here.

O=C1C(O)=C([C@H]2CC[C@H](c3ccc(Cl)cc3)CC2)C(=O)c2ccccc21 [ATOVAQUONE]
not listed: [13] | [14] | [15] | [16]
> 30 µM: all other assays above

NC(=O)CN1CC(O)CC1=O (stereo unspecified) [OXIRACETAM]
not listed: [7] | [16]
> 30 µM: all other assays above

Cc1cc(C(C)(C)C)c(O)c(C)c1CC1=NCCN1 [OXYMETAZOLINE]
> 30 µM: [13] | [3] | [14] | [15] | [16]

C[C@@H]1O[C@@H](O[C@@H]2C=C3CC[C@@H]4[C@H](CC[C@]5(C)[C@@H](c6ccc(=O)oc6)CC[C@]45O)[C@@]3(C)CC2)[C@H](O)[C@H](O)[C@H]1O [PROSCILLARIDIN]
> 30 µM: [1] | [13] | [3] | [5] | [14] | [11]

CC1(C)CCC(CN2CCN(c3ccc(C(=O)NS(=O)(=O)c4ccc(NCC5CCOCC5)c([N+](=O)[O-])c4)c(Oc4cnc5[nH]ccc5c4)c3)CC2)=C(c2ccc(Cl)cc2)C1 [VENETOCLAX]
> 30 µM: [13] | [3] | [8] | [12]
